Reference: US12492188B2, “1H-benzo[D]imidazole derivatives as TLR9 inhibitors for the treatment of fibrosis” (BRISTOL-MYERS SQUIBB COMPANY, priority 2020, dated 2025)
pIC50: −log10 of the molar value. Read-outs that look alike come from different tables or passages of the source.

Columns and labels:
Assay type in all cases: cell-based
human TLR8 = molecular target: T1, human TLR8 (Homo sapiens, UniProt Q9NR97); experiment: TLR8 inhibition reporter assay (HEK-Blue cells, secreted embryonic alkaline phosphatase reporter); settings: HEK-Blue cells overexpressing human TLR8, stimulated with R848 15.9 μM; read-out: TLR 8 IC50
T1 construct: host or cells: HEK-Blue cells (HEK293-derived reporter line)
T1 sequence (Q9NR97 27-1041): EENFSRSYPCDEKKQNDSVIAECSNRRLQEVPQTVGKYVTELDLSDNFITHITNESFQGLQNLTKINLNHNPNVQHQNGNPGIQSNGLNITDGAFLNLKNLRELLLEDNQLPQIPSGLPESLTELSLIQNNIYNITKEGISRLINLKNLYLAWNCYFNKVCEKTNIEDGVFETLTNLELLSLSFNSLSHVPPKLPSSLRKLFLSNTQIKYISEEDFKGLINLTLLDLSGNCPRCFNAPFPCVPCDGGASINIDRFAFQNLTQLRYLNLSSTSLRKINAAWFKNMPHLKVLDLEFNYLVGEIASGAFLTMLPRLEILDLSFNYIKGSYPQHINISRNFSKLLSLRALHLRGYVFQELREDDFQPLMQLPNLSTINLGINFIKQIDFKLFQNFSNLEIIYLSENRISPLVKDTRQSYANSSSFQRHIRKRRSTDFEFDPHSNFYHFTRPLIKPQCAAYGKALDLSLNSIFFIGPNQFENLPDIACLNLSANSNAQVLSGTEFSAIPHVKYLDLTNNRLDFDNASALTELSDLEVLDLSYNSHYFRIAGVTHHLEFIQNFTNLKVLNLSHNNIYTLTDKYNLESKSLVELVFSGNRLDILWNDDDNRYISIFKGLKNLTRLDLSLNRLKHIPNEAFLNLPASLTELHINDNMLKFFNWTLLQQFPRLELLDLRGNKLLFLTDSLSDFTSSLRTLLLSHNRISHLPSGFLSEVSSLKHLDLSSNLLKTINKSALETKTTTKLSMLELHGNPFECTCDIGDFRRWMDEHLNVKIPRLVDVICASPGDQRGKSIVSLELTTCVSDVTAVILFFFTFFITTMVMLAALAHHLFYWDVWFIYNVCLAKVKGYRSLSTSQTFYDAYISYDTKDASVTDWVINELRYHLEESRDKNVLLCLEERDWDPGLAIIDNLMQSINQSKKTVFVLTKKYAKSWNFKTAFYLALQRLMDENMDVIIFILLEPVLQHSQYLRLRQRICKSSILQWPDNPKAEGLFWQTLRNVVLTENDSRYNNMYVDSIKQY
Outline: (§1)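 HEK-Blue cells expressing human TLR7, TLR8 or TLR9 with an NF-κB/AP-1-driven SEAP reporter were pretreated with compound (0.05 nM–50 μM final) for 30 min at room temperature. Agonists were gardiquimod 7.5 μM for TLR7, R848 15.9 μM for TLR8 and ODN2006 5 nM for TLR9. SEAP was read after 22 h at 37 °C, and inhibition was calculated relative to agonist-plus-DMSO and known-inhibitor controls.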

human TLR7 = molecular target: T2, human TLR7 (Homo sapiens, UniProt Q9NYK1); experiment: TLR7 inhibition reporter assay (HEK-Blue cells, secreted embryonic alkaline phosphatase reporter); settings: HEK-Blue cells overexpressing human TLR7, stimulated with gardiquimod 7.5 μM; read-out: TLR 7 IC50
T2 construct: host or cells: HEK-Blue cells (HEK293-derived reporter line)
T2 sequence (Q9NYK1 27-1049): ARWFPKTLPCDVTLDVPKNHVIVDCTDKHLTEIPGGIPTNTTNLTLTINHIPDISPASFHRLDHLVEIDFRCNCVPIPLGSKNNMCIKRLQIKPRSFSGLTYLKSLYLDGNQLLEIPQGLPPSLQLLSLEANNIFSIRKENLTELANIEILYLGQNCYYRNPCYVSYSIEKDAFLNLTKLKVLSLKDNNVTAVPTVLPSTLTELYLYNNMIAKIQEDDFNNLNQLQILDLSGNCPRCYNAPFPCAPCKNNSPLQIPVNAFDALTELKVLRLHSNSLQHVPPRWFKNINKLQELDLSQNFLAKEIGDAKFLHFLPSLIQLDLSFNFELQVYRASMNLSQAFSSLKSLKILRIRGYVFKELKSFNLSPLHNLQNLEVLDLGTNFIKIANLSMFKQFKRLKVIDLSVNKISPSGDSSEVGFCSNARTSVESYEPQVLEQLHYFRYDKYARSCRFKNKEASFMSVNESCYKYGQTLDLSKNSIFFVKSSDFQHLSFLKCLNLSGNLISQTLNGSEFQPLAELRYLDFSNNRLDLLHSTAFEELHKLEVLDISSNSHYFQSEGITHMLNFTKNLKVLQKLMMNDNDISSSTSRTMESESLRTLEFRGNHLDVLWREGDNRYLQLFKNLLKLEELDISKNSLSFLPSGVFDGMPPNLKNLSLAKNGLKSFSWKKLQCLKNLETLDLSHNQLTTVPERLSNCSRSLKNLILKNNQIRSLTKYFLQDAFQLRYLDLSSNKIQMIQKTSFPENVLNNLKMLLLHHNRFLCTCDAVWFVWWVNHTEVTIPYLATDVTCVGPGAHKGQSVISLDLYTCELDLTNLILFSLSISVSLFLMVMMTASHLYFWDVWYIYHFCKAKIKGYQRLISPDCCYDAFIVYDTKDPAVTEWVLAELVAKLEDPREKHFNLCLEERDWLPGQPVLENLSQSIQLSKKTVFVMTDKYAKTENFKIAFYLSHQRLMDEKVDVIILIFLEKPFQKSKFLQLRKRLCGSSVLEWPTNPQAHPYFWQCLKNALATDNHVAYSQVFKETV
Outline: as §1

human TLR9 = molecular target: T3, human TLR9 (Homo sapiens, UniProt Q9NR96); experiment: TLR9 inhibition reporter assay (HEK-Blue cells, secreted embryonic alkaline phosphatase reporter)
T3 construct: host or cells: HEK-Blue cells (HEK293-derived reporter line)
T3 sequence (Q9NR96 26-1032): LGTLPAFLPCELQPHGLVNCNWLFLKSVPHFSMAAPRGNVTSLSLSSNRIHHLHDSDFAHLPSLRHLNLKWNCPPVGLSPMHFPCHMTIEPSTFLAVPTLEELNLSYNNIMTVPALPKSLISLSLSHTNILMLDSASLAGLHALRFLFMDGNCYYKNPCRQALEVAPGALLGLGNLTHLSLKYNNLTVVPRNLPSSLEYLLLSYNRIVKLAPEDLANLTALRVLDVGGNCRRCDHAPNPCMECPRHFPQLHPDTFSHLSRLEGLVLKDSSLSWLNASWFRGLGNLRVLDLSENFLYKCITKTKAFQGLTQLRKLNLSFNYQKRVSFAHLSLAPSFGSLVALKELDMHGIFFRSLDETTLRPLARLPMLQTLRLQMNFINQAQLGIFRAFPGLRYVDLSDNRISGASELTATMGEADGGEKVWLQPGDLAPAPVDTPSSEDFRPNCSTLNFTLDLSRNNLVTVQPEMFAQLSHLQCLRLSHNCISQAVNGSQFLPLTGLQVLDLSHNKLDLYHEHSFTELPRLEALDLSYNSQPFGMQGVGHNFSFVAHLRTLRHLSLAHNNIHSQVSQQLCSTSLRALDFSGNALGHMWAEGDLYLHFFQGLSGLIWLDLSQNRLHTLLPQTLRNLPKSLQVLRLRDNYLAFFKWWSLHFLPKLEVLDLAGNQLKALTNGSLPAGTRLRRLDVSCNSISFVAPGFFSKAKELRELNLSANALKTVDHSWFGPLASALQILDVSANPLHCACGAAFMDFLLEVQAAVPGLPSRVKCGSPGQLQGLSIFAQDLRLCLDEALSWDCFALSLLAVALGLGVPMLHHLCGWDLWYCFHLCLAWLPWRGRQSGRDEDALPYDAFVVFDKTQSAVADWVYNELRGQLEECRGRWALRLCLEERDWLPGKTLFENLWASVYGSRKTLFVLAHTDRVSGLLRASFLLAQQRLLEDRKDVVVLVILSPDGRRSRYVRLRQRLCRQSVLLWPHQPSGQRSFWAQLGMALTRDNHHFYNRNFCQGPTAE
Outline: as §1

[1] = HEK-Blue cells overexpressing human TLR9, stimulated with ODN2006 5 nM, read-out: TLR 9 IC50
[2] = HEK-Blue cells overexpressing human TLR9, stimulated with ODN2006 5 nM, 22 hour incubation, reporter readout

pIC50 (human TLR8) | pIC50 (human TLR7) | pIC50 (human TLR9) | pIC50 (human TLR9; [1]) | pIC50 (human TLR9; [2]) | pIC50 (human TLR9; HEK-Blue human TLR9 reporter cells) | SMILES
< 4.30 | 4.36 | 7.02 | 7.02 |  |  | CC(C)CN1C2CCC1CC(N1CCC(c3cc4c(cc3F)nc(-c3ccc(S(C)(=O)=O)cc3)n4C)CC1)C2 (single isomer, unassigned) [Example 229, 5-fluoro-6-(1-(8-isobutyl-8-azabicyclo[3.2.1]octan-3-yl)piperidin-4-yl)-1-methyl-2-(4-(methylsulfonyl)phenyl)-1H-benzo[d]imidazole]
5.96 | 5.23 |  |  | 7.25 |  | COc1ccc(-c2nc3ccc(C4CCN(C5CCN(C(C)C)CC5)CC4)cc3n2C)cc1OC [Example 1, 2-(3,4-dimethoxyphenyl)-6-(1′-isopropyl-[1,4′-bipiperidin]-4-yl)-1-methyl-1H-benzo[d]imidazole]
5.08 | 5.64 |  | 5.67 | 5.68 |  | Cc1ccc(CN2CCC(c3cc(C)c4nc(-c5ccc(S(C)(=O)=O)cc5)n(C)c4c3)CC2)cn1 [Example 419, 1,4-dimethyl-6-(1-((6-methylpyridin-3-yl)methyl)piperidin-4-yl)-2-(4-(methylsulfonyl)phenyl)-1H-benzo[d]imidazole]
< 4.30 | 4.65 | 7.35 | 7.35 |  |  | Cn1c(-c2ccc(S(C)(=O)=O)cc2)nc2cc(F)c(C3CCN(C4CC5CCC(C4)N5C4CCC4)CC3)cc21 (stereo not shown) [Example 232, 6-(1-(8-cyclobutyl-8-azabicyclo[3.2.1]octan-3-yl)piperidin-4-yl)-5-fluoro-1-methyl-2-(4-(methylsulfonyl)phenyl)-1H-benzo[d]imidazole]
< 4.30 | < 4.30 | 6.28 | 6.28 |  |  | Cn1c(-c2ccc(S(C)(=O)=O)cc2)nc2c(F)c(C3CCN(C4CCN(C5CCOCC5)CC4)CC3)ccc21 [Example 187, 4-fluoro-1-methyl-2-(4-(methylsulfonyl)phenyl)-5-(1′-(tetrahydro-2H-pyran-4-yl)-[1,4′-bipiperidin]-4-yl)-1H-benzo[d]imidazole]
< 4.30 | 5.05 | 7.24 | 7.24 |  |  | CC(C)CN1CCC(N2CCC(c3cc(F)c4nc(-c5ccc(S(C)(=O)=O)cc5)n(C)c4c3)CC2)CC1 [Example 278, 4-fluoro-6-(1′-isobutyl-[1,4′-bipiperidin]-4-yl)-1-methyl-2-(4-(methylsulfonyl)phenyl)-1H-benzo[d]imidazole]
< 4.30 | < 4.30 | 6.15 | 6.16 |  |  | Cn1c(-c2ccc(S(C)(=O)=O)cc2)nc2c(F)c(C3CCN(C4CCN(C5CC5)CC4)CC3)ccc21 [Example 185, 5-(1′-cyclopropyl-[1,4′-bipiperidin]-4-yl)-4-fluoro-1-methyl-2-(4-(methylsulfonyl)phenyl)-1H-benzo[d]imidazole]
< 4.30 | 4.32 | 6.42 | 6.42 |  |  | COCCN1C2CCC1CC(N1CCC(c3ccc4c(nc(-c5ccc(S(C)(=O)=O)cc5)n4C)c3F)CC1)C2 (single isomer, unassigned) [Example 200, 4-fluoro-5-(1-(8-(2-methoxyethyl)-8-azabicyclo[3.2.1]octan-3-yl)piperidin-4-yl)-1-methyl-2-(4-(methylsulfonyl)phenyl)-1H-benzo[d]imidazole]
< 4.30 | 4.80 |  | 6.77 | 6.77 |  | COc1ccc(-c2nc3c(C)cc(C4CCN(C5CCN(C6CC6)CC5)CC4)cc3[nH]2)cc1F [Example 57, 6-(1′-cyclopropyl-[1,4′-bipiperidin]-4-yl)-2-(3-fluoro-4-methoxyphenyl)-4-methyl-1H-benzo[d]imidazole]
< 4.30 | 5.64 |  | 7.92 |  | 7.92 | CS(=O)(=O)c1ccc(-c2nc3c(F)cc(C4CCN(C5CC6CCC(C5)N6C5CCOCC5)CC4)cc3n2C2CC2)cc1 (stereo not shown) [Example 328, 1-cyclopropyl-4-fluoro-2-(4-(methylsulfonyl)phenyl)-6-(1-(8-(tetrahydro-2H-pyran-4-yl)-8-azabicyclo[3.2.1]octan-3-yl)piperidin-4-yl)-1H-benzo[d]imidazole]
< 4.60 | < 4.60 | 6.10 | 6.10 |  |  | COc1ccc(-c2nc3c(C)cc(C4CCN(C5CC6CCC(C5)N6C5CCOCC5)CC4)cc3n2C)cc1OC (single isomer, unassigned) [Example 167, 2-(3,4-dimethoxyphenyl)-1,4-dimethyl-6-(1-(8-(tetrahydro-2H-pyran-4-yl)-8-azabicyclo[3.2.1]octan-3-yl)piperidin-4-yl)-1H-benzo[d]imidazole]
